# Measured values: patent publication US20250145570A1, “DHODH INHIBITOR POLYMORPH” (Aslan Pharmaceuticals Pte Ltd, priority 2022, published 2025)
# Assay: Characterisation of new polymorphs: XRPD before and after drying/grinding
# Format: physicochemical
# Method: 500 μL 1,1,1.3.3.3-Hexafluoro-2-Propanol was added to 20 mg of amorphous farudodstat DSP polymorph in a 1.5 mL of HPLC vial equipped with a magnetic stirring bar, resulting in formation of a mobile slurry. The slurry was isothermally stirred for 2 weeks at 40° C. An additional 20 mg of material was added to the slurry as it became a clear solution after one week. Solids were isolated by centrifugation using a […] Nylon filter, and were analysed without any further drying by XRPD, TGA and 1H NMR (proton nuclear magnetic resonance). Finally, the samples were dried at 40° C. for 4 hrs and then reanalysed by XRPD.
# 350 μL of N-Methylpyrrolidone (NMP) was added to 20 mg of amorphous farudodstat DSP polymorph in a 1.5 mL HPLC vial equipped with a magnetic stirring bar to prepare a mobile slurry. The resulting slurry was thermally cycled for 3 days between 5-40° C. (Ramp rate: 0.1° C./min with isothermal holds of 1 hour at 40° C. and 5° C.). The saturated solution was then evaporated at 100° C., before the solids were analysed by XRPD.
smiles,measurement,setting,value
COc1cccc(-c2cc(F)c(Nc3ncccc3C(=O)O)c(F)c2)c1 [NMP polymorph],Stability of polymorphic form,,unstable/metastable
same,Form after drying,drying at 40° C. for 4 hours,conversion of Pattern 3 back to Pattern 1
same,XRPD after gentle grinding,gentle grinding,did not change the pattern observed
